These results are taken from publication PMC10433430, “The transport of mannitol in Sinorhizobium meliloti is carried out by a broad-substrate polyol transporter SmoEFGK and is affected by the ability to transport and metabolize fructose” (Microbiology, 2023).

Structures are written as SMILES. A value given as a limit tells only on which side of the number the result lay.

Test [1] has as its target T1, SmoEFGK (Sinorhizobium meliloti, UniProt Q92N02).
T1 construct: gene smoE; native ABC transporter in intact S. meliloti Rm1021 cells grown on mannitol; smoK::Tn5-B20 mutant as control; with ABC transporter, sorbitol/mannitol permease SmoF; ABC transporter, sorbitol/mannitol permease SmoG
The test is described as follows: […]-mannitol uptake competition, intact cells. The class given is cell-based. As to conditions: 2 µM 14C-mannitol as tracer, mannitol-grown wild-type Rm1021.

A further test addresses T2, MtlK (Sinorhizobium meliloti, UniProt Q92N07).
T2 construct: full length from plasmid pJD02 (mtlK/pCO37) in S. meliloti smoS mutant; cell extract, native gel
The test is described as follows: in-gel dehydrogenase activity stain, native PAGE. The class given is biochemical. As to conditions: NAD+, phenazine methosulfate, nitro blue tetrazolium; cell extract.

The target in a further test is T3, SmoS (Sinorhizobium meliloti, UniProt Q92N06).
T3 construct: full length from plasmid pSMc01500 (smoS/pCO37) in S. meliloti smoS mutant; cell extract, native gel
Kind of test: in-gel dehydrogenase activity stain, native PAGE. In kind it is biochemical. As to conditions: sorbitol as substrate, phenazine methosulfate, nitro blue tetrazolium; cell extract.

The next test concerns the target T4, Frk (Sinorhizobium meliloti, UniProt Q92SC5).
T4 construct: N-terminal 6xHis tag, expressed from pMK48 (pRK7813) in S. meliloti Rm1021, partially purified on Ni-NTA
T4 sequence (Q92SC5 1-308): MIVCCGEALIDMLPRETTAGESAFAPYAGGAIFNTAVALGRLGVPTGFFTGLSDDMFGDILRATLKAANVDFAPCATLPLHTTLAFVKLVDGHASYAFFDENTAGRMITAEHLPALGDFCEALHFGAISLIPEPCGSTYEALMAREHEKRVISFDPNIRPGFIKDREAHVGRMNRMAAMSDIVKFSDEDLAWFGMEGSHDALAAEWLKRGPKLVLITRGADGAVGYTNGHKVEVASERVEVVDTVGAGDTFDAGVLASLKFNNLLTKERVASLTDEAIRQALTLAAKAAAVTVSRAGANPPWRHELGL
The test is described as follows: PK/LDH-coupled kinase assay, […] nm. In kind it is biochemical. As to conditions: 6 mM fructose, 3 mM ATP, 6 mM MgCl2, HEPES pH 7.5; partially purified.

The target of test [2] is T1, SmoEFGK. The test is described as follows: […]-mannitol uptake competition, intact cells. Particulars: 2 µM 14C-mannitol as tracer, 10 µM unlabelled maltitol; mannitol-grown wild-type Rm1021. The class given is cell-based.
Test [3] deals with T1, SmoEFGK. Kind of test: […]-mannitol uptake, wild type against smoK mutant. The class given is cell-based. Particulars: labelled compound, 2 µM; cells grown in mannitol and glucose.

T1 sequence (Q92N03 entry or part of it): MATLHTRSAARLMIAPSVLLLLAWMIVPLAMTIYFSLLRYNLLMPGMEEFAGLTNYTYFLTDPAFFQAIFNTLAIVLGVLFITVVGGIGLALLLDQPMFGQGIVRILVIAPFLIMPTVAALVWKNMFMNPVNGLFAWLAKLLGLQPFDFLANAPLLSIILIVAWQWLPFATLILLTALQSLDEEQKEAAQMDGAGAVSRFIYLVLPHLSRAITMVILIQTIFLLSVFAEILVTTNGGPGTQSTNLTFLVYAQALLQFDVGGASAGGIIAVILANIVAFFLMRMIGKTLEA
T1 sequence (Q92N04 entry or part of it, further chain): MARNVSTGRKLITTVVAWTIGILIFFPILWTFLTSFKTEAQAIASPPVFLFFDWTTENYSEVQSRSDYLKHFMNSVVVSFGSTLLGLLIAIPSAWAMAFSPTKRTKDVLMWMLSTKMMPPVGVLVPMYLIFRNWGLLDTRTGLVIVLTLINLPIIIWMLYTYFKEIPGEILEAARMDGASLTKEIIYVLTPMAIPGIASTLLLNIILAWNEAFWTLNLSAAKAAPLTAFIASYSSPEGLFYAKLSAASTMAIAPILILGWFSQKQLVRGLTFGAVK
T1 sequence (Q92N02 entry or part of it): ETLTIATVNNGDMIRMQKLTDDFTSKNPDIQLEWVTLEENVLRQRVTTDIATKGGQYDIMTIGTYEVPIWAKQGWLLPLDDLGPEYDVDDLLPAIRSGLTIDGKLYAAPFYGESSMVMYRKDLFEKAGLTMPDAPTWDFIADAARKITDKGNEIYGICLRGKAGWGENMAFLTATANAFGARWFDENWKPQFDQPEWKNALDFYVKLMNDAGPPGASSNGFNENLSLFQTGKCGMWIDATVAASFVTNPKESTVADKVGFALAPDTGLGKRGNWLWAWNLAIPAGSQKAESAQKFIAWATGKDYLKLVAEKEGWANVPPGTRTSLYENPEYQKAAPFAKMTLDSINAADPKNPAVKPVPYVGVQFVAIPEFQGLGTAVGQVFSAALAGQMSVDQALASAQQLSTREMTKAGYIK
T1 sequence (Q92N05 entry or part of it, further chain): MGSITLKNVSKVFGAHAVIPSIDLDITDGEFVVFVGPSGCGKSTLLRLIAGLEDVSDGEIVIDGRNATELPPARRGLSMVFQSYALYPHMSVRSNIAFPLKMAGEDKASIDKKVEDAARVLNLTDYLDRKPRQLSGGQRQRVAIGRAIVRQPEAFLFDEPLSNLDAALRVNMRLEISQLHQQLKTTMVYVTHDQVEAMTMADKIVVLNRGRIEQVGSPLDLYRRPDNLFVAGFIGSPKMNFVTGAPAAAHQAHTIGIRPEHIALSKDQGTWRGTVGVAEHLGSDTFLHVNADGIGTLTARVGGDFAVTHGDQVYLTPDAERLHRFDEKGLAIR
T2 sequence (Q92N07 entry or part of it): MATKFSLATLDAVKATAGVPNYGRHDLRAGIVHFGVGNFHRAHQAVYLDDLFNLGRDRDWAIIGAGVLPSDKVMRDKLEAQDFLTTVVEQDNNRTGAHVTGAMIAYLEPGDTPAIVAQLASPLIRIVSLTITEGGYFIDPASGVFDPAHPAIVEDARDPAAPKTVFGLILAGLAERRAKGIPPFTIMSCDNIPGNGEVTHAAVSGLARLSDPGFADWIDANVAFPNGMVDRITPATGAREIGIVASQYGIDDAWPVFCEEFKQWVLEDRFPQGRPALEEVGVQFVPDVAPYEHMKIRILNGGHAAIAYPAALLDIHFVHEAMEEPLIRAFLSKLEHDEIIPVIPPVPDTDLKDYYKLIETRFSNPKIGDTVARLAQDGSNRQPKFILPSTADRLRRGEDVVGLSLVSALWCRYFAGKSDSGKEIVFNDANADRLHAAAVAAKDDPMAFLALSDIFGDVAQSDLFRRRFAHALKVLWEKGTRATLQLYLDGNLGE
T3 sequence (Q92N06 entry or part of it): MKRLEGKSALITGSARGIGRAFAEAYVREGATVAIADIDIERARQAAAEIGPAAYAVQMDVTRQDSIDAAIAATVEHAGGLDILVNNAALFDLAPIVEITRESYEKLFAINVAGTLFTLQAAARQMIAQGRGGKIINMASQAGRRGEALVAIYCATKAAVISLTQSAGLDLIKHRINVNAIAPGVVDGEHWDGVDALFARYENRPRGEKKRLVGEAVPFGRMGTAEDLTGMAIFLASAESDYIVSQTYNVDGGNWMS

On to `OC[C@@H](O)C(O)[C@H](O)CO` [D-arabitol], for which the “% reduction of uptake at 2 μM” value at SmoEFGK [1] (2 µM unlabelled D-arabitol) was ~ 50%. Moreover, the “in-gel dehydrogenase activity stain, native PAGE” value on MtlK is on record as “if D-arabitol was used as a substrate, bands that are coincident with what mannitol result”.

Take `NC(=O)c1ccc[n+]([C@@H]2O[C@H](COP(=O)(O)OP(=O)(O)OC[C@H]3O[C@@H](n4cnc5c(N)ncnc54)[C@H](O)[C@@H]3O)[C@@H](O)[C@H]2O)c1` [NAD^+]: the “in-gel dehydrogenase activity stain, native PAGE” value on SmoS was “smoS encodes an NAD^+-dependent sorbitol and galactitol dehydrogenase”.

With `OCC1(O)OC[C@@H](O)[C@@H](O)[C@@H]1O` (stereo partly shown) [fructose], the “PK/LDH-coupled kinase assay, 340 nm” value at Frk is listed as “partially purified Frk was assayed for kinase activity using fructose as a substrate”.

Turning to `OC[C@@H](O)[C@@H](O[C@H]1O[C@H](CO)[C@@H](O)[C@H](O)[C@H]1O)[C@H](O)[C@@H](O)CO` [maltitol], the “% reduction of uptake at 10 μM” value at SmoEFGK [2] is given as above 50%.

Consider `OC[C@@H](O)[C@@H](O)[C@H](O)[C@H](O)CO` [mannitol], for which, on SmoEFGK [3], the “14C-mannitol uptake, wild type against smoK mutant” value was “SRmD495 cells were severely compromised in their ability to transport mannitol”.

Take `OC[C@@H](O)[C@@H](O)[C@H](O)[C@@H](O)CO` [sorbitol]: the “% reduction of uptake at 2 μM” value on SmoEFGK [1] (2 µM unlabelled sorbitol) was ~ 50%.
